# Experimental data as given in patent publication US20160159814A1, “GLYCINE TRANSPORTER INHIBITOR” (TAISHO PHARMACEUTICAL CO., LTD., priority 2013, published 2016).
# Where two headings read alike, the source gives them in different places.
# Target: T1, human type 1 glycine transporter (GlyT1) (Homo sapiens, UniProt P48067)
# T1 construct: T98G cells (glioma cells) expressing human type 1 glycine transporter (GlyT1) were used; endogenous in cells; host or cells: T98G cells (human glioma cells)
# T1 sequence (P48067 1-706): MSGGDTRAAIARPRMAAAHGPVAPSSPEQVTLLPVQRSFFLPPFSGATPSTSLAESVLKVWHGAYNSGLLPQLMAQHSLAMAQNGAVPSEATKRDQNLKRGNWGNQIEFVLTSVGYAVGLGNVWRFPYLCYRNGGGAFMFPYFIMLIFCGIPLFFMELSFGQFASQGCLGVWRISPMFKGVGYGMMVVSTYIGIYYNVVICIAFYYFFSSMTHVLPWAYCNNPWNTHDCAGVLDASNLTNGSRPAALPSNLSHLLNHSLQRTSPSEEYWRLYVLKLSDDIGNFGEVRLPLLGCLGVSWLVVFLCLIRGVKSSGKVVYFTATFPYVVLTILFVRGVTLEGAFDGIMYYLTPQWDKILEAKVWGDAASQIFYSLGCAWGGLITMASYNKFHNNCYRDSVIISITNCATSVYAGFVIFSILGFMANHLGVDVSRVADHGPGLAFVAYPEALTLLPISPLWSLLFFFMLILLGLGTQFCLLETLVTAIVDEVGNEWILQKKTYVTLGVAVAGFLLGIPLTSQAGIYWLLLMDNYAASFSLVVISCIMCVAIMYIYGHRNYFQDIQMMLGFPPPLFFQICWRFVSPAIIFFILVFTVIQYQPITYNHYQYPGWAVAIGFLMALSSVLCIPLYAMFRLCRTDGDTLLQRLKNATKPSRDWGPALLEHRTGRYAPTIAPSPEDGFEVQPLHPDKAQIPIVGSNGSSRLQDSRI
# Assay: Glycine uptake inhibition experiment ([3H] glycine uptake in T98G cells expressing GlyT1)
# Type: cell-based
# Description: Glycine Uptake Inhibition Experiment
# A glycine uptake experiment was conducted in accordance with the method published in Neuron, 8, 927-935, 1992. In the experiment, T98G cells (glioma cells) expressing human type 1 glycine transporter (GlyT1) were used. The T98G cells were seeded in a 96-well plate at 2.0×10^4 cells/well and cultured overnight in a CO2 incubator. The test substance was dissolved in a 100% DMSO solution and then dissolved in a 10 mM HEPES buffer solution (pH 7.4) containing 150 mM sodium chloride, 1 mM calcium chloride, 5 mM potassium chloride, 1 mM magnesium chloride, 10 mM glucose and 0.2% bovine serum albumin. After removing the cell culture medium, the test substance was subjected to a 10-min pretreatment. Subsequently, the test substance and [^3H] glycine (final concentration: 250 nM) were added to the cells and reaction was performed at room temperature for 15 minutes. After the end of the reaction, the extracellular fluid was aspirated with a manifold to remove excess labeled glycine present outside the cells, and then the cells were lysed with a 0.5 M aqueous sodium hydroxide solution. The glycine content in the cells was determined by measuring the radioactivity in the cell lysate with a liquid scintillation counter. Glycine uptake in the presence of 10 μM ALX5407 was defined as non-specific uptake, and the value calculated by subtracting the amount of the non-specific uptake from the total uptake in the absence of 10 μM ALX5407 was defined as specific uptake. In addition, glycine uptake inhibitory activity (IC50 value) was calculated from an inhibition curve at the concentrations of each test substance ranging from 10^−9 to 10^−5 M. It should be noted that ALX5407 is an HCl salt of N-[(3R)-3-([1,1′-biphenyl]-4-yloxy)-3-(4-fluorophenyl)propyl]-N-methylglycine.
# [1] = table section whose head prints (μm)
SMILES,IC50 [nM],IC50 [1] [nM]
"Cn1c(CN2C(=O)C(F)(F)c3c(C(O)C(F)F)cccc32)nc2cc(F)ccc2c1=O (single isomer, unassigned) [Compound 178, 2-{[4-(2,2-difluoro-1-hydroxyethyl)-3,3-difluoro-2-oxo-2,3-dihydro-1H-indol-1-yl]methyl}-7-fluoro-3-methylquinazolin-4(3H)-one]",44,
"O=C1N(Cc2cncc(C3CC3)c2)c2cccc(C(O)C(F)F)c2C1(F)F (single isomer, unassigned) [Compound 179, 1-[(5-cyclopropylpyridin-3-yl)methyl]-4-(2,2-difluoro-1-hydroxyethyl)-3,3-difluoro-1,3-dihydro-2H-indol-2-one]",480,
"O=C1N(Cc2ccnc(C3CC3)c2)c2cccc(C(O)C(F)F)c2C1(F)F (single isomer, unassigned) [Compound 180, 1-[(2-cyclopropylpyridin-4-yl)methyl]-4-(2,2-difluoro-1-hydroxyethyl)-3,3-difluoro-1,3-dihydro-2H-indol-2-one]",53,
"CC(O)c1c(F)ccc2c1C(F)(F)C(=O)N2Cc1cncc(Cl)c1 (single isomer, unassigned) [Compound 181, 1-[(5-chloropyridin-3-yl)methyl]-3,3,5-trifluoro-4-(1-hydroxyethyl)-1,3-dihydro-2H-indol-2-one]",310,
"CC(O)c1c(F)ccc2c1C(F)(F)C(=O)N2Cc1ccnc(C#N)c1 (single isomer, unassigned) [Compound 182, 4-{[3,3,5-trifluoro-4-(1-hydroxyethyl)-2-oxo-2,3-dihydro-1H-indol-1-yl]methyl}pyridine-2-carbonitrile]",1700,
"CC(O)c1c(F)ccc2c1C(F)(F)C(=O)N2Cc1cncc(Cl)c1 (single isomer, unassigned) [Compound 183, 1-[(5-chloropyridin-3-yl)methyl]-3,3,5-trifluoro-4-(1-hydroxyethyl)-1,3-dihydro-2H-indol-2-one]",6.7,
"CC(O)c1c(F)ccc2c1C(F)(F)C(=O)N2Cc1ccnc(C#N)c1 (single isomer, unassigned) [Compound 184, 4-{(3,3,5-trifluoro-4-(1-hydroxyethyl)-2-oxo-2,3-dihydro-1H-indol-1-yl]methyl}pyridine-2-carbonitrile]",95,
"O=C1N(Cc2cncc(C(F)(F)F)c2)c2cccc(C(O)C(F)F)c2C1(F)F (single isomer, unassigned) [Compound 186, 4-(2,2-difluoro-1-hydroxyethyl)-3,3-difluoro-1-{[5-(trifluoromethyl)pyridin-3-yl]methyl}-1,3-dihydro-2H-indol-2-one]",64,
"O=C1N(Cc2ccnc(C(F)(F)F)c2)c2cccc(C(O)C(F)F)c2C1(F)F (single isomer, unassigned) [Compound 191, 4-(2,2-difluoro-1-hydroxyethyl)-3,3-difluoro-1-{[2-(trifluoromethyl)pyridin-4-yl]methyl}-1,3-dihydro-2H-Indol-2-one]",29,
"O=C1N(Cc2ccnc(OC(F)F)c2)c2cccc(C(O)C(F)F)c2C1(F)F (single isomer, unassigned) [Compound 218, 4-(2,2-difluoro-1-hydroxyethyl)-1-{[2-(difluoromethoxy)pyridin-4-yl]methyl}-3,3-difluoro-1,3-dihydro-2H-indol-2-one]",10,
"N#Cc1cc(CN2C(=O)C(F)(F)c3c(C(O)C(F)F)cccc32)c(F)cn1 (single isomer, unassigned) [Compound 219, 4-{[4-(2,2-difluoro-1-hydroxyethyl)-3,3-difluoro-2-oxo-2,3-dihydro-1H-indol-1-yl]methyl)-5-fluoropyridine-2-carbonitrile]",180,
"N#Cc1cc(CN2C(=O)C(F)(F)c3c(C(O)C(F)F)cccc32)c(Cl)cn1 (single isomer, unassigned) [Compound 220]",170,
"O=C1N(Cc2cncc(Cl)c2)c2c(F)ccc(C(O)C(F)F)c2C1(F)F (single isomer, unassigned) [Compound 253, 1-[(5-chloropyridin-3-yl)methyl]-4-(2,2-difluoro-1-hydroxyethyl)-3,3,7-trifluoro-1,3-dihydro-2H-indol-2-one]",47,
"O=C1N(Cc2cncc(Cl)c2)c2c(F)ccc(C(O)C(F)F)c2C1(F)F (single isomer, unassigned) [Compound 254, 1-[(5-chloropyridin-3-yl)methyl]-4-(2,2-difluoro-1-hydroxyethyl)-3,3,7-trifluoro-1,3-dihydro-2H-indol-2-one]",6800,
"COc1ccc(CN2C(=O)C(F)(F)c3c(C(O)C(F)F)cccc32)cn1 (single isomer, unassigned) [Compound 255, 4-(2,2-difluoro-1-hydroxyethyl)-3,3-difluoro-1-[(6-methoxypyridin-3-yl)methyl)-1,3-dihydro-2H-indol-2-one]",69,
"COc1cccc(CN2C(=O)C(F)(F)c3c(C(O)C(F)F)cccc32)n1 (single isomer, unassigned) [Compound 256, 4-(2,2-difluoro-1-hydroxyethyl)-3,3-difluoro-1-[(6-methoxypyridin-2-yl)methyl)-1,3-dihydro-2H-indol-2-one]",9.6,

# More lines, now with the values ahead:
IC50 [nM],IC50 [1] [nM],SMILES
,110,"O=C1N(Cc2cccc(C(F)(F)F)n2)c2cccc(C(O)C(F)F)c2C1(F)F (single isomer, unassigned) [Compound 257, 4-(2,2-difluoro-1-hydroxyethyl)-3,3-difluoro-1-{[6-(trifluoromethyl)pyridin-2-yl]methyl)-1,3-dihydro-2H-indol-2-one]"
,120,"O=C1N(Cc2cncc(OC(F)F)c2)c2cccc(C(O)C(F)F)c2C1(F)F (single isomer, unassigned) [Compound 258, 4-(2,2-difluoro-1-hydroxyethyl)-1-{[5-(difluoromethoxy)pyridin-3-yl]methyl}-3,3-difluoro-1,3-dihydro-2H-indol-2-one]"
,1900,"N#Cc1cccnc1CN1C(=O)C(F)(F)c2c(C(O)C(F)F)cccc21 (single isomer, unassigned) [Compound 259, 2-{[4-(2,2-difluoro-1-hydroxyethyl)-3,3-difluoro-2-oxo-2,3-dihydro-1H-indol-1-yl]methyl}pyridine-3-carbonitrile]"
,1500,"O=C1N(Cc2cnccc2Cl)c2cccc(C(O)C(F)F)c2C1(F)F (single isomer, unassigned) [Compound 260, 1-[(4-chloropyridin-3-yl)mettiyl]-4-(2,2-difluoro-1-hydroxyethyl)-3,3-difluoro-1,3-dihydro-2H-indol-2-one]"
,11,"O=C1N(Cc2ccc(F)c(Cl)n2)c2cccc(C(O)C(F)F)c2C1(F)F (single isomer, unassigned) [Compound 263, 1-[(6-chloro-5-fluoropyridin-2-yl)methyl]-4-(2,2-difluoro-1-hydroxyethyl)-3,3-difluoro-1,3-dihydro-2H-indol-2-one]"
,170,"N#Cc1cc(CN2C(=O)C(F)(F)c3c(C(O)C(F)F)cccc32)cc(Cl)n1 (single isomer, unassigned) [Compound 264, 6-chloro-4-{[4-(2,2-difluoro-1-hydroxyethyl)-3,3-difluoro-2-oxo-2,3-dihydro-1H-indol-1-yl]methyl}pyridine-2-carbonitrile]"
,930,"COc1nc(CN2C(=O)C(F)(F)c3c(C(O)C(F)F)cccc32)ccc1F (single isomer, unassigned) [Compound 265, 4-(2,2-difluoro-1-hydroxyethyl)-3,3-difluoro-1-[(5-fluoro-6-methoxypyridin-2-yl)methyl]-1,3-dihydro-2H-indol-2-one]"
